In PubChem BioAssay AID1918993 (Molecular Pharmacology Branch, DTP, NCI, 2023):

System: 233499-124-R-J3-PDC complex spheroid growth
Assay: Anticancer human tumor 233499-124-R-J3-PDC patient-derived colon adenocarcinoma cell line growth inhibition [AhR]
Conditions: for IC50: curve of first compound; for viability, T/C: stronger effect = lower value
How it was run: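 Complex tumor spheroids co-cultured with HUVEC and human MSC stroma; AhR antagonists tested in combination with standard-of-care and investigational agents. Top concentration at or near clinical Cmax (else 10 microM), half-log dilutions; growth expressed as percent test/control.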

[1] = second compound 0.1 µM, first compound 0.0316 µM
[2] = second compound 0.1 µM, first compound 0.1 µM
[3] = second compound 0.316 µM, first compound 0.0316 µM
[4] = second compound 0.316 µM, first compound 0.1 µM
[5] = second compound 1 µM, first compound 0.0316 µM
[6] = second compound 1 µM, first compound 0.1 µM
[7] = second compound 3.16 µM, first compound 0.0316 µM
[8] = second compound 3.16 µM, first compound 0.1 µM
[9] = second compound 10 µM, first compound 0.0316 µM
[10] = second compound 10 µM, first compound 0.1 µM
[11] = second compound 0.1 µM, first compound 0.316 µM
[12] = second compound 0.1 µM, first compound 1 µM
[13] = second compound 0.1 µM, first compound 3.16 µM
[14] = second compound 0.1 µM, first compound 10 µM
[15] = second compound 0.316 µM, first compound 0.316 µM
[16] = second compound 0.316 µM, first compound 1 µM
[17] = second compound 0.316 µM, first compound 3.16 µM
[18] = second compound 0.316 µM, first compound 10 µM
[19] = second compound 1 µM, first compound 0.316 µM
[20] = second compound 1 µM, first compound 1 µM
[21] = second compound 1 µM, first compound 3.16 µM
[22] = second compound 1 µM, first compound 10 µM
[23] = second compound 3.16 µM, first compound 0.316 µM
[24] = second compound 3.16 µM, first compound 1 µM
[25] = second compound 3.16 µM, first compound 3.16 µM
[26] = second compound 3.16 µM, first compound 10 µM
[27] = second compound 10 µM, first compound 0.316 µM
[28] = second compound 10 µM, first compound 1 µM
[29] = second compound 10 µM, first compound 3.16 µM
[30] = second compound 10 µM, first compound 10 µM
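Further: spheroids exposed to agents for seven days before reading.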

Compound | IC50 (second compound 0.1 µM) | IC50 (second compound 0.316 µM) | IC50 (second compound 1 µM) | IC50 (second compound 3.16 µM) | IC50 (second compound 10 µM) | viability, T/C [1] | viability, T/C [2] | viability, T/C [3] | viability, T/C [4] | viability, T/C [5] | viability, T/C [6] | viability, T/C [7] | viability, T/C [8] | viability, T/C [9] | viability, T/C [10] | viability, T/C [11] | viability, T/C [12] | viability, T/C [13] | viability, T/C [14] | viability, T/C [15] | other results
CC[C@@]1(O)C(=O)OCc2c1cc1n(c2=O)Cc2cc3c(CN(C)C)c(O)ccc3nc2-1 + Cc1cncc(-c2nc(NCCc3c[nH]c4ccccc34)c3ncn(C(C)C)c3n2)c1 | > 100 nM | > 100 nM | > 100 nM | > 100 nM | < 0.316 nM | 97.6% | 92.6% | 101% | 69.6% | 85.2% | 68% | 83.3% | 63.2% | 12.9% | 16.9% | – | – | – | – | – | viability, T/C (second compound 0.1 µM, first compound 0.000316 µM): 101%; viability, T/C (second compound 0.1 µM, first compound 0.001 µM): 94.2%; viability, T/C (second compound 0.1 µM, first compound 0.00316 µM): 92.1%; viability, T/C (second compound 0.1 µM, first compound 0.01 µM): 94.6%; viability, T/C (second compound 0.316 µM, first compound 0.000316 µM): 92.1%; viability, T/C (second compound 0.316 µM, first compound 0.001 µM): 82.3%; viability, T/C (second compound 0.316 µM, first compound 0.00316 µM): 84.4%; viability, T/C (second compound 0.316 µM, first compound 0.01 µM): 78.5%; viability, T/C (second compound 1 µM, first compound 0.000316 µM): 84.1%; viability, T/C (second compound 1 µM, first compound 0.001 µM): 76%; viability, T/C (second compound 1 µM, first compound 0.00316 µM): 77.8%; viability, T/C (second compound 1 µM, first compound 0.01 µM): 70.3%; viability, T/C (second compound 3.16 µM, first compound 0.000316 µM): 87.8%; viability, T/C (second compound 3.16 µM, first compound 0.001 µM): 71.5%; viability, T/C (second compound 3.16 µM, first compound 0.00316 µM): 91%; viability, T/C (second compound 3.16 µM, first compound 0.01 µM): 88.6%; viability, T/C (second compound 10 µM, first compound 0.000316 µM): 8.54%; viability, T/C (second compound 10 µM, first compound 0.001 µM): 8.37%; viability, T/C (second compound 10 µM, first compound 0.00316 µM): 34.9%; viability, T/C (second compound 10 µM, first compound 0.01 µM): 24%
COc1cc(C2c3cc4c(cc3C(OC3OC5COC(C)OC5C(O)C3O)C3COC(=O)C23)OCO4)cc(OC)c1O (stereo not given) + Cc1cncc(-c2nc(NCCc3c[nH]c4ccccc34)c3ncn(C(C)C)c3n2)c1 | > 10000 nM | > 10000 nM | > 10000 nM | > 10000 nM | < 31.6 nM | 92.6% | 101% | 91.7% | 89.8% | 77.5% | 84.4% | 78.9% | 79.5% | 9.81% | 11.9% | 109% | 95.4% | 98.6% | 92.9% | 86% | viability, T/C [16]: 81.6%; viability, T/C [17]: 83.9%; viability, T/C [18]: 88.5%; viability, T/C [19]: 77.3%; viability, T/C [20]: 88%; viability, T/C [21]: 79.8%; viability, T/C [22]: 69.9%; viability, T/C [23]: 77.4%; viability, T/C [24]: 73%; viability, T/C [25]: 74.1%; viability, T/C [26]: 55.9%; viability, T/C [27]: 30.9%; viability, T/C [28]: 30.1%; viability, T/C [29]: 22.2%; viability, T/C [30]: 9.08%
Nc1ccn(C2OC(CO)C(O)C2(F)F)c(=O)n1 (stereo not given) + Cc1cncc(-c2nc(NCCc3c[nH]c4ccccc34)c3ncn(C(C)C)c3n2)c1 | 1780 nM | 768 nM | > 10000 nM | 2970 nM | > 10000 nM | 95.4% | 72% | 76.5% | 82.7% | 84.8% | 81.7% | 74.5% | 75.2% | 52.6% | 44.9% | 71.8% | 50.5% | 41.4% | 47.2% | 68% | viability, T/C [16]: 45.4%; viability, T/C [17]: 40.1%; viability, T/C [18]: 45.9%; viability, T/C [19]: 64%; viability, T/C [20]: 57.6%; viability, T/C [21]: 43.9%; viability, T/C [22]: 61.9%; viability, T/C [23]: 69.2%; viability, T/C [24]: 60.1%; viability, T/C [25]: 38.6%; viability, T/C [26]: 60.2%; viability, T/C [27]: 56%; viability, T/C [28]: 47.3%; viability, T/C [29]: 53%; viability, T/C [30]: 51.9%
